The NIST ThermoML archive (doi:10.1016/j.fluid.2017.05.012)
± gives the expanded uncertainty stated by the source. Blank lines part the entries; values can stand above or below the compound they belong to.

Settings: Liquid, Ebulliometric method (Recirculating still)

vapor or sublimation pressure (370.2 K): 101 ± 1 kPa
SMILES: CCCO [propan-1-ol]

vapor or sublimation pressure (374.8 K): 101 ± 1 kPa
SMILES: CCCOC(C)=O [propyl ethanoate]

vapor or sublimation pressure (372.9 K): 101 ± 1 kPa
SMILES: O [water]
